Experiment: xn = mol fraction of the nth substance listed

O=P([O-])([O-])O.[Na+].[Na+] + CCCCCCCCCCCC[N+](C)(C)C.[Br-] + O
298.15 K, 101 kPa
Settings	electrical conductivity [S/m]
x2 = 0, x1 = 0.0001802	0.1834
x2 = 0, x1 = 0.001799	1.203
x2 = 3.43e-06, x1 = 0.0001802	0.1849
x2 = 4.01e-06, x1 = 0.001799	1.201
x2 = 7.22e-06, x1 = 0.0001802	0.1863
x2 = 1.095e-05, x1 = 0.001799	1.202
x2 = 1.245e-05, x1 = 0.0001802	0.1888
x2 = 1.967e-05, x1 = 0.0001802	0.1919
x2 = 2.007e-05, x1 = 0.001799	1.204
x2 = 2.851e-05, x1 = 0.0001802	0.1958
x2 = 2.882e-05, x1 = 0.001799	1.205
x2 = 3.717e-05, x1 = 0.0001802	0.1997
x2 = 4.214e-05, x1 = 0.001799	1.207
x2 = 4.619e-05, x1 = 0.0001802	0.2038
x2 = 5.521e-05, x1 = 0.0001802	0.2079
x2 = 5.582e-05, x1 = 0.001799	1.209
x2 = 6.423e-05, x1 = 0.0001802	0.212
x2 = 6.895e-05, x1 = 0.001799	1.212
x2 = 7.307e-05, x1 = 0.0001801	0.2161
x2 = 8.173e-05, x1 = 0.0001801	0.2201
x2 = 8.209e-05, x1 = 0.001799	1.215
x2 = 9.056e-05, x1 = 0.0001801	0.224
x2 = 9.522e-05, x1 = 0.001799	1.218
x2 = 9.922e-05, x1 = 0.0001801	0.2279
x2 = 0.0001077, x1 = 0.0001801	0.2317
x2 = 0.0001087, x1 = 0.001799	1.221
x2 = 0.0001165, x1 = 0.0001801	0.2356
x2 = 0.0001218, x1 = 0.001799	1.224
x2 = 0.000125, x1 = 0.0001801	0.2393
x2 = 0.0001335, x1 = 0.0001801	0.243
x2 = 0.0001366, x1 = 0.001799	1.228
x2 = 0.0001441, x1 = 0.0001801	0.2473
x2 = 0.0001519, x1 = 0.001798	1.232
x2 = 0.0001524, x1 = 0.0001801	0.2509
x2 = 0.0001609, x1 = 0.0001801	0.2547
x2 = 0.0001667, x1 = 0.001798	1.236
x2 = 0.0001694, x1 = 0.0001801	0.2586
x2 = 0.0001777, x1 = 0.0001801	0.2624
x2 = 0.0001813, x1 = 0.001798	1.24
x2 = 0.0001858, x1 = 0.0001801	0.2662
x2 = 0.0001937, x1 = 0.0001801	0.2697
x2 = 0.0001963, x1 = 0.001798	1.243
x2 = 0.0002019, x1 = 0.0001801	0.2733
x2 = 0.0002103, x1 = 0.0001801	0.2774
x2 = 0.0002105, x1 = 0.001798	1.246
x2 = 0.0002184, x1 = 0.0001801	0.2809
x2 = 0.0002245, x1 = 0.001798	1.249
x2 = 0.000226, x1 = 0.0001801	0.2841
x2 = 0.0002339, x1 = 0.0001801	0.2867
x2 = 0.0002387, x1 = 0.001798	1.252
x2 = 0.0002421, x1 = 0.0001801	0.2888
x2 = 0.0002516, x1 = 0.0001801	0.2909
x2 = 0.0002524, x1 = 0.001798	1.254
x2 = 0.0002625, x1 = 0.0001801	0.2928
x2 = 0.0002663, x1 = 0.001798	1.257
x2 = 0.0002743, x1 = 0.0001801	0.2947
x2 = 0.0002801, x1 = 0.001798	1.259
x2 = 0.0002882, x1 = 0.0001801	0.2967
x2 = 0.0002936, x1 = 0.001798	1.262
x2 = 0.0003037, x1 = 0.0001801	0.2989
x2 = 0.0003071, x1 = 0.001798	1.265
x2 = 0.0003189, x1 = 0.0001801	0.3011
x2 = 0.0003202, x1 = 0.001798	1.268
x2 = 0.0003294, x1 = 0.001798	1.27
x2 = 0.0003301, x1 = 0.0001801	0.3025

COC(=O)OC + CCCCCCCC[N+](C)(CCCCCCCC)CCCCCCCC.[Cl-]
101 kPa, x1 = 1
Settings	electrical conductivity [S/m]	viscosity [mPa·s]
298.15 K	5.2e-05	0.58
303.15 K	5.5e-05	–
308.15 K	4.9e-05	–
313.15 K	5.5e-05	0.45
318.15 K	5.2e-05	0.4

Cc1ccccc1 + CCCCCCCC[n+]1ccc2ccccc2c1.O=S(=O)([N-]S(=O)(=O)C(F)(F)F)C(F)(F)F
Settings	viscosity [mPa·s]
308.15 K, 101 kPa, x1 = 1	0.5

c1ccsc1 + CCCCCCCC[n+]1ccc2ccccc2c1.O=S(=O)([N-]S(=O)(=O)C(F)(F)F)C(F)(F)F
Settings	viscosity [mPa·s]
348.15 K, 101 kPa, x1 = 1	0.34

CCCCCCCCn1cc[n+](C)c1.[Cl-] + CCCCCCCCn1cc[n+](C)c1.F[B-](F)(F)F
101 kPa, x1 = 1
Settings	electrical conductivity [S/m]	viscosity [mPa·s]
303 K	0.00213	–
308 K	0.00353	–
313 K	0.00562	–
318 K	0.00861	–
328.15 K	–	1367

Cc1ccccc1 + CCCCCC[N+]1(C)CCCC1.O=S(=O)([N-]S(=O)(=O)C(F)(F)F)C(F)(F)F
Settings	viscosity [mPa·s]
308.15 K, 100 kPa, x1 = 1	0.509

CCCCCCCCCCCCCC[P+](CCCCCC)(CCCCCC)CCCCCC.O=[N+]([O-])c1cn[n-]c1 + CCCCCC[n+]1ccn(C)c1.O=S(=O)([N-]S(=O)(=O)C(F)(F)F)C(F)(F)F
100 kPa
Settings	viscosity [mPa·s]
278.15 K, x2 = 0.7	830
293.15 K, x2 = 0.203	790

CCC(=O)[O-].CC[NH+]1CCNCC1 + CCCCO
Settings	viscosity [mPa·s]
313.15 K, 101 kPa, x2 = 0.6004	14.05

CCCCCCCCCCCC[N+](C)(C)Cc1ccccc1.O=S(=O)([N-]S(=O)(=O)C(F)(F)F)C(F)(F)F + CCCCO
101 kPa
Settings	viscosity [mPa·s]
298.15 K, x1 = 1	1425
303.15 K, x1 = 0.3015	34.1
308.15 K, x1 = 0.3015	27.3
308.15 K, x1 = 1	683
313.15 K, x1 = 0.7485	198
318.15 K, x1 = 0.1507	7.45
318.15 K, x1 = 0.4494	37.6
328.15 K, x1 = 0.9164	159
333.15 K, x1 = 0.1507	4.83
333.15 K, x1 = 0.4494	20.6
333.15 K, x1 = 0.594	40.9
338.15 K, x1 = 0.7485	63
338.15 K, x1 = 1	118
343.15 K, x1 = 0.7485	52.4
348.15 K, x1 = 0.594	25.2

FC1CC(F)(F)C(F)(F)C1(F)F (stereo not given) + CCCC[N+]1(C)CCCC1.FC(F)(F)C(F)(F)[P-](F)(F)(F)(C(F)(F)C(F)(F)F)C(F)(F)C(F)(F)F
101 kPa
Settings	electrical conductivity [S/m]	viscosity [mPa·s]
298.1 K, x2 = 0	–	1.65
298.1 K, x2 = 0.252	–	8.05
298.1 K, x2 = 0.438	–	21.3
298.1 K, x2 = 0.653	0.275	–
298.1 K, x2 = 0.842	0.167	–
303 K, x2 = 0.177	0.746	–
303 K, x2 = 0.434	0.424	–
303 K, x2 = 0.839	0.21	–
303 K, x2 = 0.844	–	87.6
308.1 K, x2 = 0.077	0.594	–
313 K, x2 = 0.183	0.88	–
318.1 K, x2 = 0.077	0.699	–
318.1 K, x2 = 0.437	–	11.2
318.1 K, x2 = 0.836	0.359	–
323 K, x2 = 0.655	–	21.17

Cc1ccccc1 + CCCC[N+]1(C)CCCC1.O=S(=O)([N-]S(=O)(=O)C(F)(F)F)C(F)(F)F
Settings	viscosity [mPa·s]
308.15 K, 100 kPa, x1 = 1	0.509

— the CheMixHub ionic liquid set
